The assay concerns LXR (THP1/LXR-Luc cells). The experiment in a line: Cell based LXR responsive luciferase reporter assay (Examples 34A, 34C). Particulars: Homo sapiens, payload compounds, differentiated THP-1/LXR-Luc cells (Table 30); for maximal fold induction: read-out: S/N. How it is done: The activity of certain LXR agonist payloads described herein were assessed in a cell based LXR responsive luciferase reporter assay. To generate the assay cell line, an LXR regulated luciferase reporter gene (Cignal Lenti LXR Reporter (luc) kit (Qiagen, Cat #CLS-001L)) was transduced into THP1 cells and the cells were selected for two weeks in puromycin. The lentivirus expresses the firefly luciferase gene under the control of a minimal CMV promoter and tandem repeats of the LXR transcriptional response element. The resulting cell line is referred to as THP1/LXR-Luc cells. For the assay, THP1/LXR-Luc cells were seeded onto 96 well plates at 40,000 cells/well in media containing RPMI supplemented with 10% FBS and penicillin/streptomycin and were then differentiated with 200 nM Phorbol Myristate Acetate (PMA) for 3 days. The media was subsequently removed and replaced with 80 uL of fresh media without PMA. Three-fold serial dilutions of free payloads were prepared in 100% DMSO, transferred to fresh media, and 20 uL were added to the cells at a final constant DMSO concentration of 0.2% and free payloads at final concentrations ranging from 100 nM to 0.015 nM. The last well in the plate served as blank control containing only the media and 0.2% DMSO (untreated well) and was plotted as a continuation of the 3-fold serial dilution. Forty-eight hours later, luciferase activity was determined after the addition of One-Glo™ reagent (Promega, Cat #E6130) to each well. Relative light units (RLUs) were measured on a Victor luminometer (PerkinElmer) and EC50 values were determined using a four-parameter logistic equation over a 10-point dose response curve (GraphPad Prism). The signal to noise (S/N) was determined by taking the ratio of the highest RLU on the dose response curve to the RLU in the untreated wells.
Several linker-payloads (LPs) were derived from the payload compounds in Table C and conjugated to an anti-MSR1 antibody (H1H21234N-N297Q) or a non-binding control using the techniques described in the previous example. The resulting anti-MSR1 LXR agonist antibody drug conjugates (ADCs) were tested for activity in the THP1/LXRLuc reporter assay as described above for the payload compounds.

The values below come from patent publication US12497460B2, “Anti-MSR1 antibodies and methods of use thereof” (REGENERON PHARMACEUTICALS, INC., priority 2018, dated 2025).

Turning to `C[C@H](NC(=O)[C@@H](N)CCC(=O)O)C(=O)Nc1ccc2c(c1)[C@@]1(C)CCC[C@](C)(C(=O)NC(=O)[C@@]3(C)CCC[C@]4(C)c5cc(N)ccc5CC[C@@H]34)[C@@H]1CC2` [P12B, (S)-4-Amino-5-((S)-1-((4bS,8S,8aR)-8-((1S,4aS,10aR)-6-amino-1,4a-dimethyl-1,2,3,4,4a,9,10,10a-octahydrophenanthrene-1-carbonylcarbamoyl)-4b,8-dimethyl-4b,5,6,7,8,8a,9,10-octahydrophenanthren-3-ylamino)-1-oxopropan-2-ylamino)-5-oxopentanoic acid], the EC50 (commonly the midpoint of the concentration-response curve) was determined as 0.296 nM and the maximal fold induction was 11.4.
Consider `C[C@]1(C(=O)NC(=O)[C@@]2(C)CCC[C@]3(C)c4cc(NC(=O)[C@@H](N)CCCCN)ccc4CC[C@@H]23)CCC[C@]2(C)c3cc(N)ccc3CC[C@@H]12` [P6B, (1S,4aS,10aR)-6-Amino-N-((1S,4aS,10aR)-6-((S)-2,6-diaminohexanamido)-1,4a-dimethyl-1,2,3,4,4a,9,10,10a-octahydrophenanthrene-1-carbonyl)-1,4a-dimethyl-1,2,3,4,4a,9,10,10a-octahydrophenanthrene-1-carboxamide], for which it took 3.34 nM to reach a half-maximal effect (EC50) and the maximal fold induction stood at 10.9.
For `C[C@]1(C(=O)NC(=O)[C@@]2(C)CCC[C@]3(C)c4cc(N)ccc4CC[C@@H]23)CCC[C@]2(C)c3cc(N)ccc3CC[C@@H]12` [P2B, (1S,4aS,10aR)-6-Amino-N-((1S,4aS,10aR)-6-amino-1,4a-dimethyl-1,2,3,4,4a,9,10,10a-octahydrophenanthrene-1-carbonyl)-1,4a-dimethyl-1,2,3,4,4a,9,10,10a-octahydrophenanthrene-1-carboxamide], in that order: 0.292 nM and 11.3.
For `C[C@]1(C(=O)NC(=O)[C@@]2(C)CCC[C@]3(C)c4cc(NC(=O)[C@@H](N)CO)ccc4CC[C@@H]23)CCC[C@]2(C)c3cc(N)ccc3CC[C@@H]12` [P5B, (1S,4aS,10aR)-6-Amino-N-((1S,4aS,10aR)-6-((S)-2-amino-3-hydroxypropanamido)-1,4a-dimethyl-1,2,3,4,4a,9,10,10a-octahydrophenanthrene-1-carbonyl)-1,4a-dimethyl-1,2,3,4,4a,9,10,10a-octahydrophenanthrene-1-carboxamide], in that order: 0.174 nM and 13.8.
For `C[C@]1(C(=O)NC(=O)[C@@]2(C)CCC[C@]3(C)c4cc(O)ccc4CC[C@@H]23)CCC[C@]2(C)c3cc(N)ccc3CC[C@@H]12` [P1, (1S,4aS,10aR)-N-[(1S,4aS,10aR)-6-Amino-1,4a-dimethyl-1,2,3,4,4a,9,10,10a-octahydrophenanthrene-1-carbonyl]-6-hydroxy-1,4a-dimethyl-1,2,3,4,4a,9,10,10a-octahydrophenanthrene-1-carboxamide], in that order: 1.14 nM and 11.4.
For `C[C@]1(C(=O)NC(=O)[C@@]2(C)CCC[C@]3(C)c4cc(NC(=O)[C@@H](N)CCC(=O)O)ccc4CC[C@@H]23)CCC[C@]2(C)c3cc(NC(=O)[C@@H](N)CCC(=O)O)ccc3CC[C@@H]12` [P11B, (4S,4'S)-5,5′-(4bS,4b'S,8S,8aR,8'S,8a′R)-8,8′-(Azanediylbis(oxomethylene))bis(4b,8-dimethyl-4b,5,6,7,8,8a,9,10-octahydrophenanthrene-8,3-diyl)bis(azanediyl)bis(4-amino-5-oxopentanoic acid)], the half-maximal effective concentration (EC50) worked out at 0.112 nM and the maximal fold induction was 10.7.
For `C[C@]1(C(=O)NC(=O)[C@@]2(C)CCC[C@]3(C)c4cc(NC(=O)[C@@H](N)CCC(=O)O)ccc4CC[C@@H]23)CCC[C@]2(C)c3cc(NC(=O)CN)ccc3CC[C@@H]12` [P10B, (S)-4-Amino-5-((4bS,8S,8aR)-8-((1S,4aS,10aR)-6-(2-aminoacetamido)-1,4a-dimethyl-1,2,3,4,4a,9,10,10a-octahydrophenanthrene-1-carbonylcarbamoyl)-4b,8-dimethyl-4b,5,6,7,8,8a,9,10-octahydrophenanthren-3-ylamino)-5-oxopentanoic acid], it took 0.222 nM to reach a half-maximal effect (EC50) and the maximal fold induction was 11.1.
For `C[C@]1(C(=O)NC(=O)[C@@]2(C)CCC[C@]3(C)c4cc(NC(=O)CN)ccc4CC[C@@H]23)CCC[C@]2(C)c3cc(N)ccc3CC[C@@H]12` [P4B, (1S,4aS,10aR)-N-[(1S,4aS,10aR)-6-(2-Aminoacetamido)-1,4a-dimethyl-1,2,3,4,4a,9,10,10a-octahydrophenanthrene-1-carbonyl]-6-amino-1,4a-dimethyl-1,2,3,4,4a,9,10,10a-octahydrophenanthrene-1-carboxamide], in that order: 0.125 nM and 10.4.
For `C[C@]1(C(=O)NC(=O)[C@@]2(C)CCC[C@]3(C)c4cc(NC(=O)[C@@H](N)CCC(=O)O)ccc4CC[C@@H]23)CCC[C@]2(C)c3cc(N)ccc3CC[C@@H]12` [P8B, (S)-4-Amino-5-((4bS,8S,8aR)-8-((1S,4aS,10aR)-6-Amino-1,4a-dimethyl-1,2,3,4,4a,9,10,10a-octahydrophenanthrene-1-carbonylcarbamoyl)-4b,8-dimethyl-4b,5,6,7,8,8a,9,10-octahydrophenanthren-3-ylamino)-5-oxopentanoic acid], the 50% effective concentration (EC50) came to 3.51 nM and the maximal fold induction came out at 10.8.
For `C[C@]1(C(=O)NC(=O)[C@@]2(C)CCC[C@]3(C)c4cc(NC(=O)[C@@H](N)Cc5cnc[nH]5)ccc4CC[C@@H]23)CCC[C@]2(C)c3cc(N)ccc3CC[C@@H]12` [P9B, (1S,4aS,10aR)-6-amino-N-((1S,4aS,10aR)-6-((S)-2-amino-3-(1H-imidazol-4-yl)propanamido)-1,4a-dimethyl-1,2,3,4,4a,9,10,10a-octahydrophenanthrene-1-carbonyl)-1,4a-dimethyl-1,2,3,4,4a,9,10,10a-octahydrophenanthrene-1-carboxamide], in that order: 0.234 nM and 12.8.
For `C[C@]1(C(=O)NC(=O)[C@@]2(C)CCC[C@]3(C)c4cc(NC(=O)[C@@H](N)CC(=O)O)ccc4CC[C@@H]23)CCC[C@]2(C)c3cc(N)ccc3CC[C@@H]12` [P7B, (S)-3-Amino-4-((4bS,8S,8aR)-8-((1S,4aS,10aR)-6-amino-1,4a-dimethyl-1,2,3,4,4a,9,10,10a-octahydrophenanthrene-1-carbonylcarbamoyl)-4b,8-dimethyl-4b,5,6,7,8,8a,9,10-octahydrophenanthren-3-ylamino)-4-oxobutanoic acid], in that order: 0.253 nM and 12.5.
